# According to the supplement of paper PMC10307832:
# How the values were obtained:
# Assay in all cases: relative viability (nuclei count vs DMSO), 5 days (fraction); higher = more cells survive
# NCI-H1944 = tested on: NCI-H1944
# Procedure, shortened: (§1)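 Relative viability divides the nuclei count in treated wells by that in vehicle wells. Lung cancer cell lines were seeded in 1536-well plates, dosed by pin tool the next day, and fixed and stained after 5 days in one step with final 0.05% Triton X-100, 1% formaldehyde and 1 ug/ml Hoechst. Dosing was a single drug or a fixed anchor-drug dose plus five library-drug doses (not always all listed) in √10 steps, and values are medians of duplicate plates imaged at 4×.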
# LC-2-ad = tested on: LC-2-ad
# Procedure, shortened: as §1
# COR-L 105 = tested on: COR-L 105
# Procedure, shortened: as §1
# NCI-H3122 = tested on: NCI-H3122
# Procedure, shortened: as §1
# NCI-H661 = tested on: NCI-H661
# Procedure, shortened: as §1
# LU99A = tested on: LU99A
# Procedure, shortened: as §1
# NCI-H1395 = tested on: NCI-H1395
# Procedure, shortened: as §1
# NCI-H1734 = tested on: NCI-H1734
# Procedure, shortened: as §1
# PC-14 = tested on: PC-14
# Procedure, shortened: as §1
# NCI-H838 = tested on: NCI-H838
# Procedure, shortened: as §1
# HARA = tested on: HARA
# Procedure, shortened: as §1
# SK-LU-1 = tested on: SK-LU-1
# Procedure, shortened: as §1
# NCI-H1975 = tested on: NCI-H1975
# Procedure, shortened: as §1
# PC-3 [JPC-3] = tested on: PC-3 [JPC-3]
# Procedure, shortened: as §1
# HCC-366 = tested on: HCC-366
# Procedure, shortened: as §1
# NCI-H647 = tested on: NCI-H647
# Procedure, shortened: as §1
# H3255 = tested on: H3255
# Procedure, shortened: as §1
# NCI-H520 = tested on: NCI-H520
# Procedure, shortened: as §1
# NCI-H1666 = tested on: NCI-H1666
# Procedure, shortened: as §1
# NCI-H1993 = tested on: NCI-H1993
# Procedure, shortened: as §1
# HCC-15 = tested on: HCC-15
# Procedure, shortened: as §1
smiles,measurement,setting,value
O=c1[nH]c2ccccc2n1C1CCN(CCCC(c2ccc(F)cc2)c2ccc(F)cc2)CC1 [Pimozide] + Nc1ncn([C@H]2C[C@H](O)[C@@H](CO)O2)c(=O)n1 [Decitabine] (partner 2 µM),relative viability,NCI-H1944; first compound 0.08 µM,0.398
same,relative viability,NCI-H1944; first compound 2.53 µM,0.436
same,relative viability,NCI-H1944; first compound 8 µM,0.393
same,relative viability,LC-2-ad; first compound 0.08 µM,0.776
same,relative viability,LC-2-ad; first compound 0.253 µM,0.697
same,relative viability,LC-2-ad; first compound 0.8 µM,0.854
same,relative viability,LC-2-ad; first compound 2.53 µM,0.868
same,relative viability,LC-2-ad; first compound 8 µM,0.837
same,relative viability,COR-L 105; first compound 0.08 µM,0.49
same,relative viability,COR-L 105; first compound 0.253 µM,0.702
same,relative viability,COR-L 105; first compound 0.8 µM,0.623
same,relative viability,COR-L 105; first compound 2.53 µM,0.659
same,relative viability,COR-L 105; first compound 8 µM,0.701
same,relative viability,NCI-H3122; first compound 0.08 µM,0.435
same,relative viability,NCI-H3122; first compound 0.253 µM,0.392
same,relative viability,NCI-H3122; first compound 0.8 µM,0.418
same,relative viability,NCI-H3122; first compound 2.53 µM,0.413
same,relative viability,NCI-H3122; first compound 8 µM,0.416
same,relative viability,NCI-H661; first compound 0.08 µM,0.564
same,relative viability,NCI-H661; first compound 0.253 µM,0.581
same,relative viability,NCI-H661; first compound 0.8 µM,0.48
same,relative viability,NCI-H661; first compound 2.53 µM,0.497
same,relative viability,NCI-H661; first compound 8 µM,0.495
same,relative viability,LU99A; first compound 0.08 µM,0.979
same,relative viability,LU99A; first compound 0.8 µM,0.97
same,relative viability,LU99A; first compound 2.53 µM,0.829
same,relative viability,LU99A; first compound 8 µM,0.847
same,relative viability,NCI-H1395; first compound 0.08 µM,0.692
same,relative viability,NCI-H1395; first compound 0.253 µM,0.74
same,relative viability,NCI-H1395; first compound 0.8 µM,0.633
same,relative viability,NCI-H1395; first compound 2.53 µM,0.691
same,relative viability,NCI-H1395; first compound 8 µM,0.637
same,relative viability,NCI-H1734; first compound 0.08 µM,0.51
same,relative viability,NCI-H1734; first compound 0.253 µM,0.489
same,relative viability,NCI-H1734; first compound 0.8 µM,0.525
same,relative viability,NCI-H1734; first compound 2.53 µM,0.431
same,relative viability,NCI-H1734; first compound 8 µM,0.509
same,relative viability,PC-14; first compound 0.253 µM,0.221
same,relative viability,PC-14; first compound 0.8 µM,0.228
same,relative viability,PC-14; first compound 2.53 µM,0.144
same,relative viability,PC-14; first compound 8 µM,0.231
same,relative viability,NCI-H838; first compound 0.08 µM,0.487
same,relative viability,NCI-H838; first compound 0.253 µM,0.395
same,relative viability,NCI-H838; first compound 0.8 µM,0.42
same,relative viability,NCI-H838; first compound 2.53 µM,0.43
same,relative viability,NCI-H838; first compound 8 µM,0.469
same,relative viability,HARA; first compound 0.08 µM,0.535
same,relative viability,HARA; first compound 0.253 µM,0.586
same,relative viability,HARA; first compound 0.8 µM,0.476
same,relative viability,HARA; first compound 2.53 µM,0.528
same,relative viability,HARA; first compound 8 µM,0.617
same,relative viability,SK-LU-1; first compound 0.08 µM,0.631
same,relative viability,SK-LU-1; first compound 0.253 µM,0.741
same,relative viability,SK-LU-1; first compound 0.8 µM,0.6
same,relative viability,SK-LU-1; first compound 2.53 µM,0.583
same,relative viability,SK-LU-1; first compound 8 µM,0.49
same,relative viability,NCI-H1975; first compound 0.08 µM,0.347
same,relative viability,NCI-H1975; first compound 0.253 µM,0.387
same,relative viability,NCI-H1975; first compound 0.8 µM,0.391
same,relative viability,NCI-H1975; first compound 2.53 µM,0.368
same,relative viability,NCI-H1975; first compound 8 µM,0.419
same,relative viability,PC-3 [JPC-3]; first compound 0.253 µM,0.838
same,relative viability,PC-3 [JPC-3]; first compound 0.8 µM,0.823
same,relative viability,PC-3 [JPC-3]; first compound 2.53 µM,0.904
same,relative viability,PC-3 [JPC-3]; first compound 8 µM,0.854
same,relative viability,HCC-366; first compound 0.08 µM,0.324
same,relative viability,HCC-366; first compound 0.253 µM,0.34
same,relative viability,HCC-366; first compound 0.8 µM,0.285
same,relative viability,HCC-366; first compound 2.53 µM,0.346
same,relative viability,HCC-366; first compound 8 µM,0.296
same,relative viability,NCI-H647; first compound 0.08 µM,0.37
same,relative viability,NCI-H647; first compound 0.253 µM,0.363
same,relative viability,NCI-H647; first compound 0.8 µM,0.392
same,relative viability,NCI-H647; first compound 2.53 µM,0.442
same,relative viability,NCI-H647; first compound 8 µM,0.508
same,relative viability,H3255; first compound 0.253 µM,0.538
same,relative viability,H3255; first compound 0.8 µM,0.496
same,relative viability,H3255; first compound 2.53 µM,0.626
same,relative viability,H3255; first compound 8 µM,0.734
same,relative viability,NCI-H520; first compound 0.08 µM,0.455
same,relative viability,NCI-H520; first compound 0.253 µM,0.428
same,relative viability,NCI-H520; first compound 0.8 µM,0.453
same,relative viability,NCI-H520; first compound 2.53 µM,0.519
same,relative viability,NCI-H520; first compound 8 µM,0.613
same,relative viability,NCI-H1666; first compound 0.08 µM,0.688
same,relative viability,NCI-H1666; first compound 0.253 µM,0.738
same,relative viability,NCI-H1666; first compound 0.8 µM,0.696
same,relative viability,NCI-H1666; first compound 2.53 µM,0.695
same,relative viability,NCI-H1666; first compound 8 µM,0.784
same,relative viability,NCI-H1993; first compound 0.08 µM,0.561
same,relative viability,NCI-H1993; first compound 0.253 µM,0.56
same,relative viability,NCI-H1993; first compound 0.8 µM,0.566
same,relative viability,NCI-H1993; first compound 2.53 µM,0.556
same,relative viability,NCI-H1993; first compound 8 µM,0.642
same,relative viability,HCC-15; first compound 0.08 µM,0.658
same,relative viability,HCC-15; first compound 0.253 µM,0.629
same,relative viability,HCC-15; first compound 0.8 µM,0.452
same,relative viability,HCC-15; first compound 2.53 µM,0.551
same,relative viability,HCC-15; first compound 8 µM,0.66
